In series [1] the target is T1, human GPR17 (hGPR17) (Homo sapiens, UniProt Q13304). The series is described as follows: calcium mobilization assay in 1321N1-GPR17 cells. The format is cell-based. Further details: expressed in transfected cells; host or cells: 1321N1 human astrocytoma cells, retroviral transfection with pLXSN-GPR17, G418 selection. On the procedure:
The sequence for the human GPR17 (short isoform) was subcloned into the vector pLXSN (Clontech Laboratories, CA 94043, USA), which can be used for retroviral transfection of the human astrocytoma cell line 1321N1. […] For the retroviral transfection of 1321N1 astrocytoma cells the packaging cell line GP+envAM12 was cultivated in HXM medium (50 ml of foetal calf serum (FCS), 5 ml of penicillin G/streptomycin solution (final concentration 100 U/ml penicillin, 100 μg/ml streptomycin), 1% ultra glutamine, 0.75 ml of hypoxanthine (10 mg/ml), 12.5 ml of xanthine (10 mg/ml), 1.25 ml of mycophenolic acid (10 mg/ml) and 2 ml of hygromycin B (50 mg/ml) were added to 500 ml DMEM). One day before transfection 1.5×10^6 cells were seeded and incubated overnight at 37° C., 5% CO2 and 95% humidity in a 25 cm^2 cell culture flask containing medium without antibiotics. For at least two hours before transfection the medium was exchanged for 6.25 ml DMEM medium without any additive. Two solutions were prepared for the transfection. The first solution consisted of 25 μl of Lipofectamine™ 2000 (final concentration 2%) and 600 μl of DMEM medium without any additives while the second solution was composed of 6.25 μg of pLXSN-GPR17 and 3.75 μg of pLXSN-VSV-G vector DNA. The second solution was filled up with DMEM medium without any additives. Solution one was incubated for 5 min at room temperature before both solutions were combined and incubated for 20 min, also at room temperature. Afterwards the sample was added to the packaging cell line and incubated for 12-15 h. The medium was then replaced with 3 ml of fresh medium containing 30 μl of a 500 mM sodium butyrate solution. The virus production was stimulated by sodium butyrate and took place by incubation for 48 h at 32° C. and 95% humidity. One day before infection 500,000 of 1321N1 astrocytoma cells were seeded in a 25 cm^2 cell culture flask. After 48 h of virus production, the retroviruses were harvested and sterilised by filtration through a filter with a pore size of […]. The host cell medium was replaced with the sterilized virus supernatant containing 6 μl of polybrene solution (4 mg/ml) and the infection of the host cells took place for further 48 h of incubation at 37° C., 95% humidity and 5% CO2. After incubation, the transfected cells were transferred to a 175 cm^2 cell culture flask and selected by adding medium containing G418. The efficiency of infection and stable transfection using this method was up to 95%.
PLC activation and IP3 accumulation result in a release of calcium from intracellular calcium stores, for example the endoplasmic reticulum. In order to detect the released calcium, cells are loaded with a cell membrane permeable dye, which is converted within the cell into its active form by the cleavage of ester bonds. The active form of the dye binds the released calcium. The fluorescence properties of the dye change after calcium binds to the dye. These changes can be detected automatically and represent the ligand-dependent receptor activation. Cells from two confluently grown (80 to 90%) 175 cm^2 cell culture flasks were needed for a calcium assay using the NOVOstar microplate reader (approximately 150,000 cells per well). Cells were harvested after removing the medium, washed once with PBS buffer and detached using a trypsin/EDTA solution. After incubation for 45 min at 37° C. and 5% CO2, the cells were pelleted by centrifugation (5 min, 200 g). Cells were resuspended in 994 μl of Krebs HEPES buffer (KHB; 118.6 mM NaCl, 4.7 mM KCl, 1.2 mM KH2PO4, 4.2 mM NaHCO3, 11.7 mM D-glucose, 10 mM HEPES (free acid), 1.3 mM MgSO4 and 1.2 mM CaCl2, pH 7.4) and loaded in the absence of light with fluorescent, namely Oregon Green 488 BAPTA-1/AM dye, by incubating them for one hour at 28° C. and 700 rpm in an Eppendorf Thermomixer in the presence of Pluronic F-127. Pluronic F-127 was supplemented so that the cells could better absorb the dye. […]
Background: Calcium assays in cells follow changes in intracellular calcium, usually with a dye or a luminescent sensor.

Series [2] deals with Native 1321N1 cells. The series is described as follows: calcium mobilization assay, unspecific effects on native 1321N1 cells. The format is cell-based, human. The settings on record: normalised to response of 100 μM carbachol. An excerpt:
(§1) In order to detect the released calcium, cells are loaded with a cell membrane permeable dye, which is converted within the cell into its active form by the cleavage of ester bonds. The active form of the dye binds the released calcium. The fluorescence properties of the dye change after calcium binds to the dye. These changes can be detected automatically and represent the ligand-dependent receptor activation. Cells from two confluently grown (80 to 90%) 175 cm^2 cell culture flasks were needed for a calcium assay using the NOVOstar microplate reader (approximately 150,000 cells per well). Cells were harvested after removing the medium, washed once with PBS buffer and detached using a trypsin/EDTA solution. After incubation for 45 min at 37° C. and 5% CO2, the cells were pelleted by centrifugation (5 min, 200 g). […] The cells were washed twice with 1 ml of KHB buffer (three centrifugation steps, each for 15 sec at 2700 rpm) before being seeded in a 96-well microplate in a total volume of 180 μl. A 10-fold concentrated agonist solution (35 μl) was added to another 96-well microplate with a V-profile. Both plates were placed into the NOVOstar microplate reader and incubated there for 20 min. After incubation, the required gain was determined by the microplate so that the fluorescence background of the cells was between 38,000 and 42,000 fluorescence units. This background is an optimal range for starting the measurement, because it is in the middle of the reader's detection range. Normally, the background in each well of a microplate should be the same. The background was determined by performing a so-called validation. A validation is performed to detect irregularities in cell densities between different wells, fluorescence or absorption properties as well as unspecific antagonist effects. […] Afterwards, 20 μl of agonist were injected from the source plate to the measurement plate by the injector unit of the NOVOstar, and the increase in fluorescence was determined as a function of the calcium efflux resulting from receptor stimulation.

Series [3] relates to CHO-K1 cells. The series is described as follows: calcium mobilization assay, unspecific effects on native CHO-K1 cells. The format is cell-based, Chinese hamster. The settings on record: normalised to response of 100 μM ATP.
Text: as §1

Series [4] has as its target T1, human GPR17 (hGPR17). Description: calcium mobilization assay in CHO-GPR17 cells. The format is cell-based. Further details: expressed in transfected cells. Conditions: for % of response of compound (± SEM) CHO-GPR17 cells: normalised to response of 0.3 μM RA-II-150; for pEC50 (± SEM) CHO-GPR17: calcium mobilization, CHO-GPR17 cells.
Text: In order to investigate potential differences in receptor signalling as a function of the cellular background, GPR17 was additionally expressed and analysed in a further cell system. Therefore, a recombinant Chinese hamster ovary (CHO) cell line stably expressing GPR17 was generated using the Flp-In™ T-Rex™ expression system. Here, expression of GPR17 was induced after adding doxycycline.
as §1

Series [5] can be described thus: solubility in solvents. The format is physicochemical.
Where [6] appears, read: 30 μM compound, normalised to response of 30 μM RA-II-150.
Where [7] appears, read: calcium mobilization, 1321N1-GPR17 cells.

The source of these data is US8623593B1, “GPR 17 agonists and screening assay” (Rheinische Friedrich-Wilhelms-Universität Bonn, priority 2011, dated 2014).

Like-named read-outs stand apart in the source and are kept apart here.

T1 sequence (Q13304 29-367): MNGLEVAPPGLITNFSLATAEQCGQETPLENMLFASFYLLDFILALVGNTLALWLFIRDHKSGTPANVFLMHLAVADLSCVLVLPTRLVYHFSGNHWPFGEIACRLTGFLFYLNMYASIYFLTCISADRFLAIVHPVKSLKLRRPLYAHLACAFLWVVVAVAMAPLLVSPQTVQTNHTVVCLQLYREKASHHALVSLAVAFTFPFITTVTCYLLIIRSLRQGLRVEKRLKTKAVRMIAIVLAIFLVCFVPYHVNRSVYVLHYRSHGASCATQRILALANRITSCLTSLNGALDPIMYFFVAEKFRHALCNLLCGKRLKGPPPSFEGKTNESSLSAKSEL

Regarding `Cc1cc(C)c2c(CCC(=O)O)c(C(=O)O)[nH]c2c1` [3-(2-Carboxyethyl)-4,6-dimethyl-1H-indole-2-carboxylic acid], in series [1] (setting [6]), the “% of response of 30 μM compound (± SEM) 1321N1-GPR17” value was 76 (6) %. Also, the “pEC50 (± SEM) 1321N1-GPR17” value in series [1] (setting [7]) is 4.86 (0.10). Moreover, in series [2], the “% response of 30 μM compound (± SEM) Native 1321N1 cells” value is recorded as 1 (1)/1 (1) (1 μM compound) %. Besides, in series [3] (1 μM compound), the “% response of compound (± SEM) CHO-K1 cells” value was 1 (1)/1 (1) (1 μM compound) %. In addition, in series [4] (1 μM compound), the “% of response of compound (± SEM) CHO-GPR17 cells” value is 68 (2) %. Moreover, the “pEC50 (± SEM) CHO-GPR17” value in series [4] is given as 6.47 (0.05).

Turning to `O=C(O)CCc1c(C(=O)O)[nH]c2cc(-c3ccccc3)cc(-c3ccccc3)c12` [3-(2-Carboxyethyl)-4,6-diphenyl-1H-indole-2-carboxylic acid], in series [1] (setting [7]), the “pEC50 (± SEM) 1321N1-GPR17” value was found to be 5.52.

Regarding `O=C(O)CCc1c(C(=O)O)[nH]c2cc(F)cc(F)c12` [3-(2-Carboxyethyl)-4,6-difluoro-1H-indole-2-carboxylic acid], the “% of response of 30 μM compound (± SEM) 1321N1-GPR17” value in series [1] (setting [6]) is listed as 77 (2) %. The “pEC50 (± SEM) 1321N1-GPR17” value in series [1] (setting [7]) is reported as 5.13 (0.13). In addition, the “% response of 30 μM compound (± SEM) Native 1321N1 cells” value in series [2] is on record as 2 (1) %. In addition, the “% response of compound (± SEM) CHO-K1 cells” value in series [3] (3 μM compound) is on record as 1 (2) %. Also, the “% of response of compound (± SEM) CHO-GPR17 cells” value in series [4] (3 μM compound) is 97 (5) %. Further, in series [4], the “pEC50 (± SEM) CHO-GPR17” value was 6.79 (0.10).

For the compound `O=C(O)CCc1c(C(=O)O)[nH]c2cc(Br)cc(Br)c12` [3-(2-Carboxyethyl)-4,6-dibromo-1H-indole-2-carboxylic acid], the “% of response of compound (± SEM) 1321N1-GPR17” value in series [1] (10 μM compound, normalised to response of 30 μM RA-II-150) is given as 106 (1) %. Also, the “pEC50 (± SEM) 1321N1-GPR17” value in series [1] (setting [7]) is 6.71 (0.01). In addition, the “% response of 30 μM compound (± SEM) Native 1321N1 cells” value in series [2] is given as 0 (1) %. Besides, the “solubility in methanol, ethanol and ethyl acetate” value in series [5] (methanol, ethanol, ethyl acetate) was “well soluble”. Besides, the “solubility in petrol ether, water, hexane” value in series [5] (petrol ether, water, hexane) is on record as “slightly soluble”. Besides, the “% response of compound (± SEM) CHO-K1 cells” value in series [3] (0.3 μM compound) was 0 (0) %. In series [4] (0.3 μM compound), the “% of response of compound (± SEM) CHO-GPR17 cells” value is given as 89 (2) %. In series [4], the “pEC50 (± SEM) CHO-GPR17” value is 7.87 (0.16).

Regarding `O=C(O)CCc1c(C(=O)O)[nH]c2cc(Cl)cc(Cl)c12` [RA-II-150, 3-(2-carboxyethyl)-4,6-dichloro-1H-indole-2-carboxylic acid], in series [1], the “% of response of 30 μM compound (± SEM) 1321N1-GPR17” value is listed as 100 (0)/100 (0) (0.3 μM compound) % and the “pEC50 (± SEM) 1321N1-GPR17” value was 6.09 (0.06)/ 8.20 (0.08). In addition, the “% response of 30 μM compound (± SEM) Native 1321N1 cells” value in series [2] is on record as 0 (3) %. The “% response of compound (± SEM) CHO-K1 cells” value in series [3] (0.1 μM compound) was 0 (1) %. The “% of response of compound (± SEM) CHO-GPR17 cells” value in series [4] (0.3 μM compound) is reported as 100 (0)/100 (0) (0.3 μM compound) %. Also, the “pEC50 (± SEM) CHO-GPR17” value in series [4] is on record as 6.09 (0.06)/ 8.20 (0.08).

Turning to `O=C(O)CCc1c(C(=O)O)[nH]c2cc(Br)ccc12` [3-(2-Carboxyethyl)-6-bromo-1H-indole-2-carboxylic acid], in series [1] (setting [7]), the “pEC50 (± SEM) 1321N1-GPR17” value is 5.50.

Regarding `O=C(O)CCc1c(C(=O)O)[nH]c2cc(I)ccc12` [3-(2-Carboxyethyl)-6-iodo-1H-indole-2-carboxylic acid], the “pEC50 (± SEM) 1321N1-GPR17” value in series [1] (setting [7]) is given as 6.15.

Turning to `O=C(O)CCc1c(C(=O)O)[nH]c2cc(Cl)ccc12` [3-(2-Carboxyethyl)-6-chloro-1H-indole-2-carboxylic acid], the “% of response of 30 μM compound (± SEM) 1321N1-GPR17” value in series [1] (setting [6]) is 84 (6) %. Further, the “pEC50 (± SEM) 1321N1-GPR17” value in series [1] (setting [7]) is given as 5.43 (0.14). Moreover, in series [2], the “% response of 30 μM compound (± SEM) Native 1321N1 cells” value is given as 4 (3) %. In addition, the “% response of compound (± SEM) CHO-K1 cells” value in series [3] (0.3 μM compound) is recorded as 1 (2) %. In addition, in series [4] (1 μM compound), the “% of response of compound (± SEM) CHO-GPR17 cells” value was 94 (7) %. In series [4], the “pEC50 (± SEM) CHO-GPR17” value is given as 7.69 (0.10).

Regarding `O=C(O)CCc1c(C(=O)O)n(CCC(=O)O)c2cc(Cl)cc(Cl)c12`, the “% of response of 30 μM compound (± SEM) 1321N1-GPR17” value in series [1] (setting [6]) is given as 80 (6) %. In addition, the “% response of 30 μM compound (± SEM) Native 1321N1 cells” value in series [2] is 1 (1)/1 (1) (1 μM compound) %. The “% response of compound (± SEM) CHO-K1 cells” value in series [3] (1 μM compound) is 1 (1)/1 (1) (1 μM compound) %. In series [4] (1 μM compound), the “% of response of compound (± SEM) CHO-GPR17 cells” value is on record as 85 (5) %.

Regarding `O=C(O)CCc1c(C(=O)O)[nH]c2cc(I)cc(I)c12` [3-(2-Carboxyethyl)-4,6-diiodo-1H-indole-2-carboxylic acid], the “pEC50 (± SEM) 1321N1-GPR17” value in series [1] (setting [7]) came out at 5.32.

In the case of `O=C(O)CCc1c(C(=O)O)[nH]c2cc(-c3ccccc3)ccc12` [3-(2-Carboxyethyl)-6-phenyl-1H-indole-2-carboxylic acid], in series [1] (setting [7]), the “pEC50 (± SEM) 1321N1-GPR17” value worked out at 6.14.
